The values that follow come from ChEMBL document CHEMBL5532749, “Synthesis and functional evaluation of proteinogenic amino acid-derived synthetic cannabinoid receptor agonists related to MPP-5F-PICA, MMB-5F-PICA, and MDMB-5F-PICA” (RSC Med Chem, 2024).

What all share (type): functional, cell-based
Test [1] has as its target T1, Cannabinoid receptor 2 (Homo sapiens, UniProt P34972). Nature of the test: Agonist activity at HA-tagged human CB2 receptor stably transfected in AtT20 cells assessed as maximal efficacy at 30 uM incubated for 60 mins by FLIPR membrane potential assay relative to control. The settings on record: filed as agonist.
Test [2] deals with T2, Cannabinoid receptor 1 (Homo sapiens, UniProt P21554). Nature of the test: Agonist activity at HA-tagged human CB1 receptor stably transfected in AtT20 cells assessed as maximal efficacy at 30 uM incubated for 60 mins by FLIPR membrane potential assay relative to control. The note with it: filed as agonist.
The target in test [3] is T2, Cannabinoid receptor 1. As to the kind of experiment: Agonist activity at HA-tagged human CB1 receptor stably transfected in AtT20 cells incubated for 60 mins by FLIPR membrane potential assay.
For test [4], the target named is T1, Cannabinoid receptor 2. Nature of the test: Agonist activity at HA-tagged human CB2 receptor stably transfected in AtT20 cells incubated for 60 mins by FLIPR membrane potential assay.
The target of test [5] is T2, Cannabinoid receptor 1. Nature of the test: Agonist activity at human CB1 receptor stably transfected in AtT20 cells incubated for 60 mins by FLIPR membrane potential assay.
For test [6], the target named is T1, Cannabinoid receptor 2. Nature of the test: Agonist activity at human CB2 receptor stably transfected in AtT20 cells assessed as maximal efficacy at 30 uM incubated for 60 mins by FLIPR membrane potential assay relative to control. The settings on record: filed as agonist.
Test [7] deals with T2, Cannabinoid receptor 1. Nature of the test: Agonist activity at human CB1 receptor stably transfected in AtT20 cells assessed as maximal efficacy at 30 uM incubated for 60 mins by FLIPR membrane potential assay relative to control. The settings on record: filed as agonist.
Test [8] addresses T1, Cannabinoid receptor 2. As to the kind of experiment: Agonist activity at human CB2 receptor stably transfected in AtT20 cells incubated for 60 mins by FLIPR membrane potential assay.
The target of test [9] is T2, Cannabinoid receptor 1. Nature of the test: Agonist activity at human CB1 receptor stably transfected in AtT20 cells assessed as maximal efficacy at 10 uM incubated for 60 mins by FLIPR membrane potential assay relative to control.
The target of test [10] is T1, Cannabinoid receptor 2. As to the kind of experiment: Agonist activity at human CB2 receptor stably transfected in AtT20 cells assessed as maximal efficacy at 10 uM incubated for 60 mins by FLIPR membrane potential assay relative to control.

Structures are written as SMILES.

T2 sequence (P21554 whole entry): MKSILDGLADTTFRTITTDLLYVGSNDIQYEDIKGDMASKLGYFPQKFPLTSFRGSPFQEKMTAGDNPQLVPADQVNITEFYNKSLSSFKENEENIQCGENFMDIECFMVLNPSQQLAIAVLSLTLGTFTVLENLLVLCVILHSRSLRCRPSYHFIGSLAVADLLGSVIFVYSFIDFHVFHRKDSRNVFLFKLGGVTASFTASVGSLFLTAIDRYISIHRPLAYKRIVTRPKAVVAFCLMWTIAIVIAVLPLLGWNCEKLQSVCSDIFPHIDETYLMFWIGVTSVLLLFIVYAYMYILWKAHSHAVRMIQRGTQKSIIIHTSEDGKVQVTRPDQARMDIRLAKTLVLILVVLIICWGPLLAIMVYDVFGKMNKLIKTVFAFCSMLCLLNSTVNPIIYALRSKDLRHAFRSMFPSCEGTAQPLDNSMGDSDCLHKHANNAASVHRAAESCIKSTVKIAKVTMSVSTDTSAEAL
T1 sequence (P34972 whole entry): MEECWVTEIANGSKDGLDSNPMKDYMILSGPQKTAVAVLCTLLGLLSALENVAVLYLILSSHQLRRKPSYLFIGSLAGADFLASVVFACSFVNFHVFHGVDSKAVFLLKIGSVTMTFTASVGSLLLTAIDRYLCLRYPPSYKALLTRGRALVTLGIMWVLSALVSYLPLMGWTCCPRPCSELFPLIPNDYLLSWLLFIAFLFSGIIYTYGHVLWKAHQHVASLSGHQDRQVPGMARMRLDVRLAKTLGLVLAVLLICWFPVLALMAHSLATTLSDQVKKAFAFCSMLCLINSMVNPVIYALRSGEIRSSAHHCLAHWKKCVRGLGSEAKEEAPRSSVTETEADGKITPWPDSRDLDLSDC

For the compound `COC(=O)[C@@H](NC(=O)c1cn(CCCCCF)c2ccccc12)C(C)C`, the Emax at Cannabinoid receptor 2 [1] came out at 94%; on Cannabinoid receptor 1 [2], 107%. Also, the EC50 on Cannabinoid receptor 1 [3] was 2.4 nM; on Cannabinoid receptor 2 [4] it was 4.6 nM.
For the compound `COC(=O)[C@@H](NC(=O)c1cn(CCCCCF)c2ccccc12)[C@@H](C)O`, the values for the EC50 on Cannabinoid receptor 1 [5] (read-out: EC50) and at Cannabinoid receptor 2 [8] were 49 nM and 148 nM, respectively. Moreover, the Emax was determined as 60% on Cannabinoid receptor 2 [6] and 134% at Cannabinoid receptor 1 [7].
On the same counts, the results for `COC(=O)[C@H](NC(=O)c1cn(CCCCCF)c2ccccc12)C(C)C` are 104 nM, 16.2 nM, 107% and 130%.
On the same counts, the results for `COC(=O)[C@H](Cc1ccc(O)cc1)NC(=O)c1cn(CCCCCF)c2ccccc12` are 182 nM, 87.7 nM, 98% and 135%.
On the same counts, the results for `COC(=O)[C@H](NC(=O)c1cn(CCCCCF)c2ccccc12)[C@H](C)O` are 2310 nM, 93.4 nM, 81% and 105%.
Regarding `CC[C@H](C)[C@H](NC(=O)c1cn(CCCCCF)c2ccccc12)C(=O)OC`, the values for the EC50 at Cannabinoid receptor 1 [5] (read-out: EC50) and on Cannabinoid receptor 2 [8] were 27.6 nM and 19.2 nM, respectively. The Emax was determined as 124% on Cannabinoid receptor 2 [6] and 145% on Cannabinoid receptor 1 [7].
In the case of `COC(=O)[C@H](Cc1ccccc1)NC(=O)c1cn(CCCCCF)c2ccccc12`, the figures for the EC50 at Cannabinoid receptor 1 [5] (read-out: EC50), on Cannabinoid receptor 1 [5] (read-out: pEC50 (converted)) and at Cannabinoid receptor 2 [8] were 4.63 nM, 4.57 nM and 7.41 nM, respectively. Moreover, the Emax at Cannabinoid receptor 2 [6] stood at 99%; on Cannabinoid receptor 1 [7] it was 108%.
`COC(=O)[C@H](CCC(N)=O)NC(=O)c1cn(CCCCCF)c2ccccc12`: the figures for the Emax on Cannabinoid receptor 2 [6] and at Cannabinoid receptor 1 [9] (filed as agonist) were 90% and 94%, respectively. This compound also returned an EC50 on Cannabinoid receptor 2 [8] of 199 nM.
In the same order, the values of `COC(=O)[C@@H](CCCCN)NC(=O)c1cn(CCCCCF)c2ccccc12` are 74%, 58% and 1270 nM.
On to `COC(=O)[C@@H](NC(=O)c1cn(CCCCCF)c2ccccc12)C(C)(C)C`, for which the figures for the maximal response (Emax) at Cannabinoid receptor 2 [1] and on Cannabinoid receptor 1 [2] were 94% and 110%, respectively. Besides, the EC50 at Cannabinoid receptor 1 [3] was 0.45 nM; on Cannabinoid receptor 2 [4] it was 7.4 nM.
As to `COC(=O)[C@H](CO)NC(=O)c1cn(CCCCCF)c2ccccc12`, the EC50 at Cannabinoid receptor 1 [5] (read-out: EC50) is 200 nM; at Cannabinoid receptor 2 [8], 625 nM. For the same compound, the Emax was 41% on Cannabinoid receptor 2 [6] and 123% at Cannabinoid receptor 1 [7].
Consider `COC(=O)[C@@H]1CCCN1C(=O)c1cn(CCCCCF)c2ccccc12`, for which the EC50 amounted to 20.7 nM on Cannabinoid receptor 1 [5] (read-out: EC50) and 13.4 nM on Cannabinoid receptor 2 [8]. Further, the results for the Emax on Cannabinoid receptor 2 [6] and at Cannabinoid receptor 1 [7] were 86% and 106%, respectively.
With `COC(=O)[C@H](C)NC(=O)c1cn(CCCCCF)c2ccccc12`, the EC50 on Cannabinoid receptor 1 [5] (read-out: EC50) came out at 78.8 nM; at Cannabinoid receptor 2 [8], 59.5 nM. Moreover, the Emax is 86% at Cannabinoid receptor 2 [6] and 108% at Cannabinoid receptor 1 [7].
Take `COC(=O)[C@@H](Cc1ccc(O)cc1)NC(=O)c1cn(CCCCCF)c2ccccc12`: the Emax at Cannabinoid receptor 1 [9] (filed as agonist) was found to be 57%; at Cannabinoid receptor 2 [10] (filed as agonist) it was 40%.
As for `COC(=O)[C@@H](CCC(N)=O)NC(=O)c1cn(CCCCCF)c2ccccc12`, the EC50 at Cannabinoid receptor 1 [5] (read-out: EC50) was determined as 3630 nM; at Cannabinoid receptor 2 [8], 445 nM. For the same compound, the values for the Emax on Cannabinoid receptor 2 [6] and on Cannabinoid receptor 1 [7] were 76% and 116%, respectively.
In the same order, the values of `COC(=O)[C@H](CC(C)C)NC(=O)c1cn(CCCCCF)c2ccccc12` are 25.5 nM, 7.16 nM, 99% and 136%.
Regarding `COC(=O)[C@@H](C)NC(=O)c1cn(CCCCCF)c2ccccc12`, the Emax at Cannabinoid receptor 2 [6] was 72%; on Cannabinoid receptor 1 [7] it was 71%. The EC50 at Cannabinoid receptor 2 [8] was 478 nM.
For the compound `COC(=O)[C@H](NC(=O)c1cn(CCCCCF)c2ccccc12)C(C)(C)C`, the figures for the EC50 on Cannabinoid receptor 1 [5] (read-out: EC50) and at Cannabinoid receptor 2 [8] were 16.4 nM and 56.5 nM, respectively. Further, the Emax on Cannabinoid receptor 2 [6] came to 96%; at Cannabinoid receptor 1 [7], 129%.
In the same order, the values of `CC[C@@H](C)[C@@H](NC(=O)c1cn(CCCCCF)c2ccccc12)C(=O)OC` are 33.5 nM, 26.8 nM, 107% and 121%.
In the same order, the values of `COC(=O)[C@H](CCSC)NC(=O)c1cn(CCCCCF)c2ccccc12` are 358 nM, 59.6 nM, 81% and 151%.
On the same counts, the results for `COC(=O)[C@@H](CC(C)C)NC(=O)c1cn(CCCCCF)c2ccccc12` are 23.9 nM, 53.2 nM, 112% and 150%.
In the case of `COC(=O)[C@@H](CO)NC(=O)c1cn(CCCCCF)c2ccccc12`, the figures for the Emax on Cannabinoid receptor 1 [9] (filed as agonist) and on Cannabinoid receptor 2 [10] (filed as agonist) were 66% and 46%, respectively.
For the compound `COC(=O)[C@@H](Cc1c[nH]c2ccccc12)NC(=O)c1cn(CCCCCF)c2ccccc12`, the maximum response (Emax) on Cannabinoid receptor 1 [9] was determined as 9%; on Cannabinoid receptor 2 [10], 17%.
On the same counts, the results for `COC(=O)[C@H]1CCCN1C(=O)c1cn(CCCCCF)c2ccccc12` are 33% and 7%.
Take `COC(=O)CNC(=O)c1cn(CCCCCF)c2ccccc12`: the Emax turned out to be 40% on Cannabinoid receptor 1 [9] (filed as agonist) and 12% at Cannabinoid receptor 2 [10].
`COC(=O)[C@@H](CCSC)NC(=O)c1cn(CCCCCF)c2ccccc12`: the results for the EC50 at Cannabinoid receptor 1 [5] (read-out: EC50) and on Cannabinoid receptor 2 [8] were 206 nM and 95 nM, respectively. Moreover, the Emax on Cannabinoid receptor 2 [6] worked out at 90%; at Cannabinoid receptor 1 [7] it was 139%.
For the compound `COC(=O)[C@@H](Cc1ccccc1)NC(=O)c1cn(CCCCCF)c2ccccc12`, the EC50 at Cannabinoid receptor 1 [5] (read-out: EC50) was 441 nM; at Cannabinoid receptor 2 [8], 586 nM. Besides, the figures for the Emax on Cannabinoid receptor 2 [6] and at Cannabinoid receptor 1 [7] were 57% and 107%, respectively.
Regarding `COC(=O)[C@H](CCCCN)NC(=O)c1cn(CCCCCF)c2ccccc12`, the Emax at Cannabinoid receptor 1 [9] is 12%; at Cannabinoid receptor 2 [10], 4%.
In the same order, the values of `COC(=O)[C@H](Cc1c[nH]c2ccccc12)NC(=O)c1cn(CCCCCF)c2ccccc12` are 34% and 37%.
